This passage reports Minimum inhibitory concentration results from patent publication US11225505B2, “Antimicrobial polymyxin derivative compounds” (MONASH UNIVERSITY, priority 2015, dated 2022).

Holding throughout (assay type): cell-based
For test [1], the system named is Acinetobacter baumannii FADDI-AB030. Nature of the test: microbe, parasite or virus in culture. Particulars: FADDI-AB030. The method, boiled down:
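Broth microdilution MIC in cation-adjusted Mueller-Hinton broth per CLSI M100-S24; lipopeptides tested as TFA salts. FADDI-AB030 is a multidrug-resistant clinical isolate. Polymyxin B sulphate served as control.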

In test [2] the test system is Enterobacter cloacae FADDI-EC003. Particulars: FADDI-EC003. The method, boiled down: (§1)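 Standard CLSI (M100-S24) microdilution in cation-adjusted broth gives the MIC for each strain. Test compounds are TFA-salt lipopeptides; the comparator is polymyxin B sulphate.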
Test [3] deals with Klebsiella pneumoniae Kp BM1. Particulars: Kp BM1. A digest of the protocol:
(§2)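 Values are MICs of the lipopeptide trifluoroacetic acid salts. Dilution series were set up in CAMHB as CLSI M100-S24 specifies.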

Test [4] concerns Enterobacter cloacae FADDI-EC001. Particulars: FADDI-EC001. A digest of the protocol: as §2
In test [5] the test system is Pseudomonas aeruginosa ATCC 27853. Particulars: ATCC 27853. A digest of the protocol:
as §1

Test [6] has as its system Acinetobacter baumannii ATCC 17978. Particulars: ATCC 17978. The method, boiled down:
as §1

For test [7], the system named is Enterobacter cloacae FADDI-EC006. Particulars: FADDI-EC006. The method, boiled down:
as §1

In test [8] the test system is Klebsiella pneumoniae FADDI-KP032. Particulars: FADDI-KP032. A digest of the protocol:
as §1

Test [9] concerns Pseudomonas aeruginosa FADDI-PA022. Particulars: FADDI-PA022. The method, boiled down: as §1
Test [10] has as its system Pseudomonas aeruginosa FADDI-PA01. Particulars: FADDI-. A digest of the protocol: as §1
Test [11] deals with Klebsiella pneumoniae FADDI-KP022. Particulars: FADDI-KP022. The method, boiled down:
as §1

In test [12] the test system is Acinetobacter baumannii FADDI-AB034. Particulars: FADDI-AB034. The method, boiled down: as §1
Test [13] has as its system Pseudomonas aeruginosa FADDI-PA038. Particulars: FADDI-PA038. A digest of the protocol:
as §1

Molecules are shown by their SMILES. ≈ marks a conversion by molar mass, not a printed value. Where a SMILES comes first, the peptide text is derived from it. Bridges are numbered along the chain shown (N, C = ends). [ ]: non-standard residue; d: D form. The star is where a group is joined. Propanoyl(3-indol-3-yl) = O=C(CCc1c[nH]c2ccccc12)*; X50 = O=C(c1sc(Br)cc1Br)*; X29 = O=C(c1cc(Cl)ccn1)*; X65 = O=C(c1cc(Br)ccn1)*; Dab = NCC[C@H](N)C(=O)O; X68 = O=C(c1coc(Br)c1)*; X70 = O=C(c1csc(Br)c1)*; Abu = CC[C@H](N)C(=O)O; Dap = NC[C@H](N)C(=O)O A value given as a limit tells only on which side of the number the result lay.

Turning to `CC(C)C[C@H]1NC(=O)[C@H](CCN)NC(=O)[C@@H](NC(=O)[C@H](CN)NC(=O)[C@@H](NC(=O)[C@H](CCN)NC(=O)c2cc(Cl)ccn2)[C@@H](C)O)CCNC(=O)[C@H]([C@@H](C)O)NC(=O)[C@H](CCN)NC(=O)[C@H](CCN)NC(=O)[C@H]([C@@H](C)O)NC1=O` [Compound 98] (X29-[Dab]T[Dap][Dab][Dab][dL]T[Dab][Dab]T; lactam 4-C), the Minimum inhibitory concentration is 1 µg/mL (≈ 0.875 µM) in test [1]; less than 0.125 µg/mL in test [2]; 0.25 µg/mL (≈ 0.219 µM) in test [3]; less than 0.125 µg/mL in test [4]; 0.25 µg/mL (≈ 0.219 µM) in test [5]; 2 µg/mL (≈ 1.75 µM) in [6]. The Minimum inhibitory concentration is 0.5 µg/mL (≈ 0.438 µM) in test [7]; 0.25 µg/mL (≈ 0.219 µM) in test [8]; 0.25 µg/mL (≈ 0.219 µM) in test [9]; 0.25 µg/mL (≈ 0.219 µM) in test [10]; less than 0.125 µg/mL in test [11]; 2 µg/mL (≈ 1.75 µM) in test [12]. Besides, in [13], the Minimum inhibitory concentration is 8 µg/mL (≈ 7 µM).
For `CC(C)C[C@H]1NC(=O)[C@H](CCN)NC(=O)[C@@H](NC(=O)[C@H](CN)NC(=O)[C@@H](NC(=O)[C@H](CCN)NC(=O)c2sc(Br)cc2Br)[C@@H](C)O)CCNC(=O)[C@H]([C@@H](C)O)NC(=O)[C@H](CCN)NC(=O)[C@H](CCN)NC(=O)[C@H](C)NC1=O` [Compound 99] (X50-[Dab]T[Dap][Dab][Dab][dL]A[Dab][Dab]T; lactam 4-C), the Minimum inhibitory concentration in test [1] is 0.5 µg/mL (≈ 0.403 µM); in test [2] it was 0.25 µg/mL (≈ 0.201 µM); in [3] it was 0.25 µg/mL (≈ 0.201 µM); in [4] it was less than 0.125 µg/mL; in [5] it was 0.25 µg/mL (≈ 0.201 µM); in test [6], 1 µg/mL (≈ 0.806 µM). Moreover, the Minimum inhibitory concentration in test [7] was less than 0.125 µg/mL; in [8], less than 0.125 µg/mL; in test [9] it was 0.25 µg/mL (≈ 0.201 µM); in test [10], 0.25 µg/mL (≈ 0.201 µM); in test [11], less than 0.125 µg/mL; in [12], 0.5 µg/mL (≈ 0.403 µM). The compound also gave a Minimum inhibitory concentration in [13] of 1 µg/mL (≈ 0.806 µM).
`CC(C)C[C@H]1NC(=O)[C@H](CCN)NC(=O)[C@@H](NC(=O)[C@H](CN)NC(=O)[C@@H](NC(=O)[C@H](CCN)NC(=O)c2sc(Br)cc2Br)[C@@H](C)O)CCNC(=O)[C@H]([C@@H](C)O)NC(=O)[C@H](CCN)NC(=O)[C@H](CCN)NC(=O)[C@H]([C@@H](C)O)NC1=O` [Compound 100] (X50-[Dab]T[Dap][Dab][Dab][dL]T[Dab][Dab]T; lactam 4-C): the Minimum inhibitory concentration in test [1] was 0.5 µg/mL (≈ 0.393 µM); in test [2], less than 0.125 µg/mL; in test [3], 0.5 µg/mL (≈ 0.393 µM); in test [4] it was less than 0.125 µg/mL; in test [5], less than 0.125 µg/mL; in [6], 0.25 µg/mL (≈ 0.197 µM). Further, the Minimum inhibitory concentration is less than 0.125 µg/mL in test [7]; 0.25 µg/mL (≈ 0.197 µM) in test [8]; less than 0.125 µg/mL in [9]; less than 0.125 µg/mL in [10]; less than 0.125 µg/mL in [11]; 0.5 µg/mL (≈ 0.393 µM) in test [12]. This compound also yielded a Minimum inhibitory concentration in test [13] of 1 µg/mL (≈ 0.787 µM).
As to `CC[C@@H]1NC(=O)[C@@H](CC(C)C)NC(=O)[C@H](CCN)NC(=O)[C@@H](NC(=O)[C@H](CN)NC(=O)[C@@H](NC(=O)[C@H](CCN)NC(=O)c2csc(Br)c2)[C@@H](C)O)CCNC(=O)[C@H]([C@@H](C)O)NC(=O)[C@H](CCN)NC(=O)[C@H](CCN)NC1=O` [Compound 101] (X70-[Dab]T[Dap][Dab][Dab][dL][Abu][Dab][Dab]T; lactam 4-C), the Minimum inhibitory concentration in test [1] worked out at 0.5 µg/mL (≈ 0.425 µM); in test [2], 0.5 µg/mL (≈ 0.425 µM); in [3], 0.5 µg/mL (≈ 0.425 µM); in [4] it was 0.5 µg/mL (≈ 0.425 µM); in [5], 0.25 µg/mL (≈ 0.213 µM); in test [6], 0.5 µg/mL (≈ 0.425 µM). Moreover, the Minimum inhibitory concentration in [7] came out at 0.5 µg/mL (≈ 0.425 µM); in test [8], 0.5 µg/mL (≈ 0.425 µM); in [9], 0.25 µg/mL (≈ 0.213 µM); in test [10], 0.25 µg/mL (≈ 0.213 µM); in test [11], 1 µg/mL (≈ 0.85 µM); in test [12] it was 0.5 µg/mL (≈ 0.425 µM). Further, in test [13], the Minimum inhibitory concentration is 0.5 µg/mL (≈ 0.425 µM).
Regarding `CC[C@@H]1NC(=O)[C@@H](CC(C)C)NC(=O)[C@H](CCN)NC(=O)[C@@H](NC(=O)[C@H](CN)NC(=O)[C@@H](NC(=O)[C@H](CCN)NC(=O)c2cc(Br)ccn2)[C@@H](C)O)CCNC(=O)[C@H]([C@@H](C)O)NC(=O)[C@H](CCN)NC(=O)[C@H](CCN)NC1=O` [Compound 102] (X65-[Dab]T[Dap][Dab][Dab][dL][Abu][Dab][Dab]T; lactam 4-C), the Minimum inhibitory concentration in [1] is 0.25 µg/mL (≈ 0.213 µM); in test [2] it was less than 0.125 µg/mL; in test [3], less than 0.125 µg/mL; in test [4], less than 0.125 µg/mL; in test [5], 0.5 µg/mL (≈ 0.427 µM); in test [6], 0.5 µg/mL (≈ 0.427 µM). Moreover, the Minimum inhibitory concentration is less than 0.125 µg/mL in test [7]; 0.25 µg/mL (≈ 0.213 µM) in test [8]; 0.5 µg/mL (≈ 0.427 µM) in test [9]; 0.5 µg/mL (≈ 0.427 µM) in [10]; less than 0.125 µg/mL in test [11]; 0.5 µg/mL (≈ 0.427 µM) in test [12]. The compound also had a Minimum inhibitory concentration in test [13] of 1 µg/mL (≈ 0.854 µM).
On to `CC[C@@H]1NC(=O)[C@@H](CC(C)C)NC(=O)[C@H](CCN)NC(=O)[C@@H](NC(=O)[C@H](CN)NC(=O)[C@@H](NC(=O)[C@H](CCN)NC(=O)c2coc(Br)c2)[C@@H](C)O)CCNC(=O)[C@H]([C@@H](C)O)NC(=O)[C@H](CCN)NC(=O)[C@H](CCN)NC1=O` [Compound 103] (X68-[Dab]T[Dap][Dab][Dab][dL][Abu][Dab][Dab]T; lactam 4-C), for which the Minimum inhibitory concentration in [1] turned out to be 1 µg/mL (≈ 0.862 µM); in test [2], 0.5 µg/mL (≈ 0.431 µM); in test [3], 0.5 µg/mL (≈ 0.431 µM); in test [4], 0.5 µg/mL (≈ 0.431 µM); in [5], 0.5 µg/mL (≈ 0.431 µM); in test [6] it was 1 µg/mL (≈ 0.862 µM). The Minimum inhibitory concentration in test [7] was 0.5 µg/mL (≈ 0.431 µM); in test [8] it was 0.5 µg/mL (≈ 0.431 µM); in test [9], 0.5 µg/mL (≈ 0.431 µM); in test [10] it was 0.5 µg/mL (≈ 0.431 µM); in [11], less than 0.125 µg/mL; in [12], 1 µg/mL (≈ 0.862 µM). In addition, the Minimum inhibitory concentration in test [13] came to 2 µg/mL (≈ 1.72 µM).
As to `CC[C@@H]1NC(=O)[C@@H](CC(C)C)NC(=O)[C@H](CCN)NC(=O)[C@@H](NC(=O)[C@H](CN)NC(=O)[C@@H](NC(=O)[C@H](CCN)NC(=O)CCc2c[nH]c3ccccc23)[C@@H](C)O)CCNC(=O)[C@H]([C@@H](C)O)NC(=O)[C@H](CCN)NC(=O)[C@H](CCN)NC1=O` [Compound 104] ({Propanoyl(3-indol-3-yl)}-[Dab]T[Dap][Dab][Dab][dL][Abu][Dab][Dab]T; lactam 4-C), the Minimum inhibitory concentration in test [1] was 0.5 µg/mL (≈ 0.432 µM); in [2] it was less than 0.125 µg/mL; in test [3], less than 0.125 µg/mL; in test [4], less than 0.125 µg/mL; in test [5] it was 0.25 µg/mL (≈ 0.216 µM); in [6], 0.5 µg/mL (≈ 0.432 µM). For the same compound, the Minimum inhibitory concentration in [7] was 0.25 µg/mL (≈ 0.216 µM); in test [8], less than 0.125 µg/mL; in [9], 0.25 µg/mL (≈ 0.216 µM); in [10], less than 0.125 µg/mL; in [11] it was less than 0.125 µg/mL; in test [12], 0.5 µg/mL (≈ 0.432 µM). Moreover, in [13], the Minimum inhibitory concentration came out at 0.5 µg/mL (≈ 0.432 µM).
